Bridge positions count the residues as written; N and C are the ends. Square brackets hold non-standard residues; d marks the D form. Peptide text beside a SMILES is read from it.
System: H1N1 A1/Malaysia/302/1954
Settings: A1/Malaysia/302/1954, 48 h, 1 μM

Row | Structure (SMILES) | % Inhibition
1 | CC[C@@H](C)[C@H]1NC(=O)[C@@H](CC(C)C)NC(=O)[C@@H]([C@H](C)O)NC(=O)[C@@H](Cc2ccccc2)NC(=O)[C@@H](Cc2c[nH]c3ccccc23)NC(=O)[C@@H](Cc2c[nH]c3ccccc23)NC(=O)[C@H](NC(=O)[C@H](CCCCN)NC(=O)[C@H](CCCCN)NC(=O)[C@H](CCCNC(=N)N)NC(=O)[C@@H](N)CCCNC(=N)N)CSSC[C@H](C(=O)O)NC(=O)[C@@H](C)NC1=O [PSP VII A10, H-RRKKcwwftliac-OH] (H-RRKK[dC][dW][dW][dF][dT][dL][dI][dA][dC]-OH; disulfide 5-13) | 35.7%
2 | CC[C@@H](C)[C@H]1NC(=O)[C@@H](CCSC)NC(=O)[C@@H]([C@H](C)O)NC(=O)[C@@H](Cc2ccccc2)NC(=O)[C@@H](Cc2c[nH]c3ccccc23)NC(=O)[C@@H](Cc2c[nH]c3ccccc23)NC(=O)[C@H](NC(=O)[C@H](CCCCN)NC(=O)[C@H](CCCCN)NC(=O)[C@H](CCCNC(=N)N)NC(=O)[C@@H](N)CCCNC(=N)N)CSSC[C@H](C(=O)O)NC(=O)[C@@H](C)NC1=O [PSP VII A11, H-RRKKcwwftmiac-OH] (H-RRKK[dC][dW][dW][dF][dT][dM][dI][dA][dC]-OH; disulfide 5-13) | 9.8%
3 | CC[C@@H](C)[C@H]1NC(=O)[C@@H](Cc2c[nH]cn2)NC(=O)[C@@H]([C@H](C)O)NC(=O)[C@@H](Cc2ccccc2)NC(=O)[C@@H](Cc2c[nH]c3ccccc23)NC(=O)[C@@H](Cc2c[nH]c3ccccc23)NC(=O)[C@H](NC(=O)[C@H](CCCCN)NC(=O)[C@H](CCCCN)NC(=O)[C@H](CCCNC(=N)N)NC(=O)[C@@H](N)CCCNC(=N)N)CSSC[C@H](C(=O)O)NC(=O)[C@@H](C)NC1=O [PSP VII A7, H-RRKKcwwfthiac-OH] (H-RRKK[dC][dW][dW][dF][dT][dH][dI][dA][dC]-OH; disulfide 5-13) | 47.1%
4 | CC[C@@H](C)[C@H]1NC(=O)[C@@H](CCC(=O)O)NC(=O)[C@@H]([C@H](C)O)NC(=O)[C@@H](Cc2ccccc2)NC(=O)[C@@H](Cc2c[nH]c3ccccc23)NC(=O)[C@@H](Cc2c[nH]c3ccccc23)NC(=O)[C@H](NC(=O)[C@H](CCCCN)NC(=O)[C@H](CCCCN)NC(=O)[C@H](CCCNC(=N)N)NC(=O)[C@@H](N)CCCNC(=N)N)CSSC[C@H](C(=O)O)NC(=O)[C@@H](C)NC1=O [PSP VII A4, H-RRKKcwwfteiac-OH] (H-RRKK[dC][dW][dW][dF][dT][dE][dI][dA][dC]-OH; disulfide 5-13) | 3.8%
5 | CC[C@@H](C)[C@H]1NC(=O)[C@@H](CC(=O)O)NC(=O)[C@@H]([C@H](C)O)NC(=O)[C@@H](Cc2ccccc2)NC(=O)[C@@H](Cc2c[nH]c3ccccc23)NC(=O)[C@@H](Cc2c[nH]c3ccccc23)NC(=O)[C@H](NC(=O)[C@H](CCCCN)NC(=O)[C@H](CCCCN)NC(=O)[C@H](CCCNC(=N)N)NC(=O)[C@@H](N)CCCNC(=N)N)CSSC[C@H](C(=O)O)NC(=O)[C@@H](C)NC1=O [PSP VII A3, H-RRKKcwwftdiac-OH] (H-RRKK[dC][dW][dW][dF][dT][dD][dI][dA][dC]-OH; disulfide 5-13) | 9.5%
6 | CC[C@@H](C)[C@H]1NC(=O)CNC(=O)[C@@H]([C@H](C)O)NC(=O)[C@@H](Cc2ccccc2)NC(=O)[C@@H](Cc2c[nH]c3ccccc23)NC(=O)[C@@H](Cc2c[nH]c3ccccc23)NC(=O)[C@H](NC(=O)[C@H](CCCCN)NC(=O)[C@H](CCCCN)NC(=O)[C@H](CCCNC(=N)N)NC(=O)[C@@H](N)CCCNC(=N)N)CSSC[C@H](C(=O)O)NC(=O)[C@@H](C)NC1=O [PSP VII A5, H-RRKKcwwftGiac-OH] (H-RRKK[dC][dW][dW][dF][dT]G[dI][dA][dC]-OH; disulfide 5-13) | 9.5%
